Blank lines part the entries; values can stand above or below the compound they belong to.
Experiments:
[1] = system: laser-induced choroidal neovascularization (CNV); assay: Laser-induced model of choroidal neovascularization (CNV); assay type: in vivo
Protocol: A laser-induced model of CNV was employed, as known in the art, to determine whether blockade of IP receptors alone is sufficient to inhibit CNV. See e.g., Francois et al., 1975, Am. J. Ophthalmol. 79:206-210; Edelman & Castro, 2000, Exp. Eye Res. 71:523-533; Goody, R. J., et al., 2011, Exp. Eye. Research 92:464-472. Test rats were administered laser treatment after which vehicle (50% propylene glycol in H2O) or IP receptor antagonist Formula II was administered. The area of subsequently identified CNV was quantified by methods known in the art. […] Moreover, as depicted in FIG. 2C, the area of CNV was reduced on a per lesion basis.

[2] = target: T1, IP receptor (Homo sapiens, UniProt P43119); assay: Inhibition of 100 nM cicaprost-induced VEGF secretion in TNFα-stimulated human macrophages; assay type: cell-based; conditions: TNFα-stimulated human macrophages from two individual donors, FIG. 1B
T1 construct: endogenous in cells; host or cells: TNFα-stimulated human macrophages from individual donors
T1 sequence (P43119 whole entry): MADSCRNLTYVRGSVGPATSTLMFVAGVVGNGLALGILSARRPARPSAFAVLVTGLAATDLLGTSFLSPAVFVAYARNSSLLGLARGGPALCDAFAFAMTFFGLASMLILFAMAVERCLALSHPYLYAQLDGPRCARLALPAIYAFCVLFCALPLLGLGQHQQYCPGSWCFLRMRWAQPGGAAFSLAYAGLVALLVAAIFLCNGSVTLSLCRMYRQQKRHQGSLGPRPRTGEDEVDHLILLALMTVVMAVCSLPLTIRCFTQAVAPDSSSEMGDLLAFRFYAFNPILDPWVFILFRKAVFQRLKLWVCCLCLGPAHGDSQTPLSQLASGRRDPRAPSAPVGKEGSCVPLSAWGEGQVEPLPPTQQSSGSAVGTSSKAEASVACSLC
From the text: (§1) A TNFα-stimulated human macrophage system was employed, as known in the art, to assess the effect of IP receptor agonist and IP receptor antagonist on induction of VEGF secretion.
In order to test whether a IP receptor antagonist can reverse the effect of cicaprost-induced VEGF secretion in TNFα-stimulated human macrophages, the IP receptor antagonist Formula I was employed.

[3] = target: T1, IP receptor; assay: Cicaprost-induced VEGF secretion in TNFα-stimulated human macrophages; assay type: cell-based; conditions: FIG. 1A
From the text: as §1

SMILES: O=C(N[C@@H](Cc1ccc(F)cc1)C(=O)O)OCc1cc2cc(-c3cccc(F)c3)ccc2o1 [Formula II]
area of CNV per test subject (rat vs. rat) ([1]; after laser treatment, vs vehicle 50% propylene glycol in H2O, n=6, FIG. 2A): significantly reduced
area of CNV, comparison of each eye (eye vs. eye) ([1]; rat, after laser treatment, vs vehicle, n=12, FIG. 2B): reduced
area of CNV on a per lesion basis (lesion vs. lesion) ([1]; rat, after laser treatment, vs vehicle, n=38, FIG. 2C): reduced
inhibition of laser-induced choroidal neovascularization (CNV) ([1]; rat, FIG. 2 overall, vs vehicle 50% propylene glycol in H20): sufficient to inhibit laser-induced choroidal neovascularization

inhibition of cicaprost-induced VEGF secretion [2]: dose dependently inhibits
SMILES: CC(C)Oc1ccc(Cc2ccc(NC3=NCCN3)cc2)cc1 [Formula I]

induction of VEGF secretion [3]: dose dependently induces VEGF secretion
SMILES: CCC#CC[C@H](C)[C@H](O)C#C[C@@H]1[C@H]2C/C(=C/COCC(=O)O)C[C@H]2C[C@H]1O [cicaprost]

Source: patent US9321745B2, “Inhibition of neovascularization by inhibition of prostanoid IP receptors” (ALLERGAN, INC., priority 2013, dated 2016)
